ChEMBL document CHEMBL5241084, “Non-carbohydrate strategies to inhibit lectin proteins with special emphasis on galectins” (Eur J Med Chem, 2021)
One block for each compound: values may come before it. Starred links: 1 amine or outer side, 2 acyl side, 3 side chain; linkers in the order of their positions; H or OH if unused. Non-standard residues stand in square brackets, D forms with d. Residues, ends and D or L forms follow the SMILES beside them. X2 = O=C(CCc1cccc2c1Cc1c(CCN[*:1])cccc1-2)[*:2]; X3 = O=C(CCc1cccc2c1oc1c(CCN[*:1])cccc12)[*:2]; Nva = CCC[C@H](N)C(=O)O

Columns and labels:
[1] = tested on: MDCK; test: Antimigratory activity against dog MDCK cells assessed as inhibition of cell migration preincubated for 0.5 hrs followed by wounding and measured after 24 hrs by wound closure assay; type: functional, cell-based; details: Canis lupus familiaris
[2] = target: C-type lectin domain family 4 member K (Homo sapiens, UniProt Q9UJ71); test: Inhibition of human Langerin overexpressed in human Raji cells incubated for 30 mins by flow cytometry; type: cell-based
[3] = tested on: HUVEC; test: Antiproliferative activity against human HUVEC cells assessed as inhibition of basic fibroblast growth factor stimulated stimulated cell proliferation incubated for 72 hrs by CCK-8 assay; type: functional, cell-based
[4] = target: T1, P-selectin (Homo sapiens, UniProt P16109); test: Inhibition of P-selectin (unknown origin) incubated for 30 mins by ELISA
T1 sequence (P16109 whole entry): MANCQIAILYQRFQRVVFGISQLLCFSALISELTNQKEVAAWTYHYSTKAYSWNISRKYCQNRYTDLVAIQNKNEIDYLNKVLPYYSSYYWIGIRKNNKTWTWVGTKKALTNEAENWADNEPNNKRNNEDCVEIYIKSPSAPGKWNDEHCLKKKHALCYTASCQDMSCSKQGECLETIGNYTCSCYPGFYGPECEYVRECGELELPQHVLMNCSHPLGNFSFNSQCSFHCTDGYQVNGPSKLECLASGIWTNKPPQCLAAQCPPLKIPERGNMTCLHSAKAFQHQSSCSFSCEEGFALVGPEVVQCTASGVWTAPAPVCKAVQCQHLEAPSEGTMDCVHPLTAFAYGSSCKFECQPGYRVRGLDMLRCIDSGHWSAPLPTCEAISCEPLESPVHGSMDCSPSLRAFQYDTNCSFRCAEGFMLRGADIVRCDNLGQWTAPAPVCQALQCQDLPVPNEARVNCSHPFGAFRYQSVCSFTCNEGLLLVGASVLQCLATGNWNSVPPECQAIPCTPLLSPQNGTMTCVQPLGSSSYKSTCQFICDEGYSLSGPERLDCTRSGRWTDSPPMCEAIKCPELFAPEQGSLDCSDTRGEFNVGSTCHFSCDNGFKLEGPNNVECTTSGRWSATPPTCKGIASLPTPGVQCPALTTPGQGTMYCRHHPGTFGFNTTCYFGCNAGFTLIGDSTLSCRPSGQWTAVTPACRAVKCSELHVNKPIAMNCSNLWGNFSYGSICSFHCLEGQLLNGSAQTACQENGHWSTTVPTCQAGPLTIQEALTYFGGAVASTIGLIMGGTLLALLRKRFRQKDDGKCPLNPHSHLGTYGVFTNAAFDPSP

[5] = Anti-angiogenic activity in human MA148 cells xenografted in athymic nude mouse assesed as tumor growth inhibition at 10 mg/kg, sc weekly once for 28 days; type: functional; details: MA148, 672 h, time 28 day, read-out: TGI
[6] = tested on: PC-3; test: Antiproliferative activity against human PC-3 cells assessed as reduction in cell proliferation incubated for 72 hrs by SRB assay; type: functional, cell-based; details: PC-3, 72 h
[7] = target: T2, Galectin-1 (Homo sapiens, UniProt P09382); test: Binding affinity to human Gal-1 assessed as decrease in Gal-1 levels by ELISA
[8] = tested on: DU-145; test: Antiproliferative activity against human DU-145 cells assessed as reduction in cell proliferation incubated for 72 hrs by SRB assay; type: functional, cell-based; details: DU-145, 72 h
[9] = target: T2, Galectin-1; test: Binding affinity to Gal-1 (unknown origin) incubated for 30 mins by RP-HPLC analysis
[10] = tested on: MCF7; test: Anticancer activity against human MCF7 cells assessed as reduction in cell viability incubated for 48 hrs by MTT assay; type: functional, cell-based; details: MCF7, 48 h
[11] = tested on: SK-OV-3; test: Anticancer activity against human SK-OV-3 cells assessed as reduction in cell viability and measured after 72 hrs by CellTiter-Glo reagent based assay; type: functional; details: SK-OV-3, 72 h
[12] = tested on: A549; test: Anticancer activity against human A549 cells assessed as reduction in cell viability incubated for 48 hrs by MTT assay; type: functional, cell-based; details: A549, 48 h
[13] = Anticancer activity against human MDA-MB-231 cells assessed as reduction in cell viability incubated for 48 hrs by MTT assay; type: functional, cell-based; details: MDA-MB-23, 48 h
[14] = tested on: NCI-H460; test: Anticancer activity against human NCI-H460 cells assessed as reduction in cell viability incubated for 48 hrs by MTT assay; type: functional, cell-based; details: NCI-H460, 48 h
[15] = target: T2, Galectin-1; test: Binding affinity to Gal-1 (unknown origin) by fluorescence spectroscopy
[16] = tested on: MG-63; test: Anticancer activity against human MG-63 cells assessed as reduction in cell viability incubated for 48 hrs by MTT assay; type: functional, cell-based; details: MG-63, 48 h

Chain of C-type lectin domain family 4 member K (Q9UJ71 whole entry, the tested form may be a part): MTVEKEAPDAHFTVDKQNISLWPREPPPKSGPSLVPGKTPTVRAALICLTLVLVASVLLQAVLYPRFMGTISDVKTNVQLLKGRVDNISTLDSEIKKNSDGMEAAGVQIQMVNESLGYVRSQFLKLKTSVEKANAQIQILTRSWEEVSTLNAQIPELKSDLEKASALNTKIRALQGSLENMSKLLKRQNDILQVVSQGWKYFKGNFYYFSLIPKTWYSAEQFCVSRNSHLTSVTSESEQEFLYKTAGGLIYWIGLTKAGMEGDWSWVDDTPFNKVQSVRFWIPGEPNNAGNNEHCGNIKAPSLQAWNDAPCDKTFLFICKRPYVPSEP
T2 sequence (P09382 whole entry): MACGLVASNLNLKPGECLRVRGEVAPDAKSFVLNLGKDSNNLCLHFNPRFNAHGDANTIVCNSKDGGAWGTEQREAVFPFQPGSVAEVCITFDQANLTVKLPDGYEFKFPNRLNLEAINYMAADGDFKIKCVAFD

IC50 [2]: 1190 µM
Compound: CCOC(=O)C1CCNC(=O)C1O (centres undefined)

IC50 [2]: 1060 µM
Compound: CCOC(=O)c1sc(=O)[nH]c1C(F)(F)F

IC50 [2]: 1150 µM
Compound: CCN1CCN(CC(C)c2ccc(F)cc2)CC1 (centres undefined)

IC50 [2]: 580 µM
Compound: CCOC(=O)c1cc(C(F)(F)F)n[nH]1

IC50 [2]: 590 µM
Compound: O=C(O)c1cccnc1Nc1cccc(C(F)(F)F)c1 [NIFLUMIC ACID]

IC50 [2]: 1030 µM
Compound: Cc1n[nH]c(C)c1Cc1ccc(O)cc1

More lines, now with the values behind:

Compound: COc1cccc2c1[C@H](CO)N1[C@@H](C#N)[C@H]3C[C@@H](C(=O)O)[C@H]([C@@H]1C2)N3C
IC50 [1]: 140 µM

Compound: CCC[C@H](NC(=O)[C@H](CCC(N)=O)NC(=O)[C@@H](NC(=O)[C@@H](N)CO)C(C)C)C(=O)N[C@@H](CCCCN)C(=O)N[C@@H](CC(C)C)C(=O)NCCc1cccc2c1Cc1c(CCC(=O)N[C@H](C(=O)N[C@H](C(=O)N[C@H](C(=O)N[C@@H](CCCCN)C(=O)N[C@@H](CC(C)C)C(=O)N[C@@H](CC(N)=O)C(=O)N[C@@H](C)C(=O)O)C(C)C)[C@@H](C)CC)[C@@H](C)CC)cccc1-2 (H-SVQ[Nva]KL[X2]IIVKLNA-OH)
IC50 [3]: 10 µM

Compound: CCCCCCCCCCCCCCCCNC(=O)/C=C/c1ccc(-c2[nH]c(-c3ccc(C4=NNC(C=O)C4)cc3)nc2-c2ccc(/C=C/C(=O)O)cc2)cc1 (centres undefined)
IC50 [4]: 0.3 µM

Compound: H-ANIKLSVQMKLFKRHLKWKIIVKLNDGRELSLD-OH
inhibition in vivo at 10 mg/kg [5]: 80%

Compound: CCOC(=O)C1CCN(Cc2cc(=O)oc3cc(OCc4ccc([N+](=O)[O-])cc4)ccc23)CC1
IC50 [6]: 7.45 µM | IC50 [7]: 100 µM | IC50 [8]: 8.95 µM

Compound: CC[C@H](C)[C@H](NC(=O)[C@H](C)NC(=O)CCc1cccc2c1oc1c(CCNC(=O)[C@H](CC(C)C)NC(=O)[C@H](CCCCN)NC(=O)[C@H](CCSC)NC(=O)[C@H](CCC(N)=O)NC(=O)[C@@H](NC(=O)[C@@H](N)CO)C(C)C)cccc12)C(=O)N[C@H](C(=O)N[C@@H](CCCCN)C(=O)N[C@@H](CC(C)C)C(=O)N[C@@H](CC(N)=O)C(=O)N[C@@H](C)C(=O)O)C(C)C (H-SVQMKL[X3]AIVKLNA-OH)
IC50 [3]: 5 µM

Compound: COc1c(C)c(OC)c2c(c1OCc1ccccc1)[C@H](COCc1ccccc1)N1[C@@H]3[C@H]4[C@H](C[C@H]([C@@H]1C#N)N4C)C(=O)N[C@H]23
IC50 [1]: 32.5 µM

Compound: O=C(Nc1ccc(O)cc1)c1ccc(-c2nc3cc(Cl)ccc3n2Cc2ccccc2)cc1
Activity [9]: 85.4% | IC50 [10]: 7.01 µM

Compound: CC(=O)OCCN(CCOC(C)=O)c1ccc(-c2nc3cc(C(CC(N)=O)NC(=O)C(N)Cc4ccc(Cl)c(Cl)c4)ccc3n2Cc2ccc(F)c(F)c2)cc1 (centres undefined)
IC50 [11]: 15.7 µM

Compound: Oc1cccc(-n2cc(COc3ccc(-c4nc5cc(Cl)ccc5n4Cc4ccccc4)cc3)nn2)c1
IC50 [12]: 0.63 µM | IC50 [13]: 0.94 µM | IC50 [10]: 1.3 µM | IC50 [14]: 0.99 µM

Compound: COc1ccc2c(c1)c(C/C=C(/O)c1cc3ccccc3oc1=O)cn2Cc1cccc(Cl)c1
Ka [15]: 6.6 10^5/M

Compound: CC1CN(Cc2cc(=O)oc3cc(OCc4cn(Cc5ccc(Cl)cc5Cl)nn4)ccc23)CC(C)O1 (centres undefined)
IC50 [16]: 0.8 µM
